Test [1] relates to heterozygous (Het) female Mecp2 mutant mice. The test is described as follows: Foot slip. The class given is in vivo, mouse. As to conditions: chronic treatment, 24 h after last treatment (data not shown). As to the method: Small-molecule compounds were diluted in saline and delivered by i.p. injection. To define the acute effects of single drug treatments, behavioral testing was initiated 1 h after dosing. Durable effects of single drug treatments were evaluated 24 h after dosing. To define the effects of repeated dosing, mice were treated once every 3 days (q72 h) for 4 or 8 weeks, and behavioral testing was performed 24 h after the last dose.
Foot slip was used to assess locomotor coordination and spontaneous movement on a challenging substrate. Animals were placed on an elevated wire mesh surface (50 cm^2) with 1 cm^2 openings and allowed to freely explore for 5 min ([Starkey et al., 2005]). Total distance traveled was measured by a computer-operated animal activity system (ANY-maze, Stoelting). The total number of forepaw and hindpaw slips, where the foot came completely through the grate with no toes remaining on the grid, was manually counted, and the number of slips/cm traveled was calculated.
Figure S3. Single administration of PTX-BD4-3 reduces foot slip errors in Het mice. Mice received a single injection of PTX-BD4-3 (P.1, P.5, P.50) one hour prior to the beginning of foot slip testing. n = 10-23 animals derived from 3 […]
***p<0.001 compared to saline-treated Wt mice (V, black bar), †p<0.05 compared to saline-treated Het mice (V, grey bar); One-Way ANOVA with LSD post-hoc analysis. […]

The target of the next test is T1, NTS1 (NT1) (h) (Homo sapiens, UniProt P30989).
T1 construct: purchased Cerep (ExpresSProfile)
The test is described as follows: Cerep ExpresSProfile radioligand binding. The conditions noted are these: 10 micromolar, agonist radioligand. As to the method:
(§1) To evaluate the relative binding specificity of LM22A-4 ([Massa et al., 2010]) and PTX-BD4-3, binding to a broad range of 55 pharmacologically relevant receptors, including numerous neurotransmitter and G-protein coupled receptors was assessed using standard radioligand competition binding assays (ExpressSProfile) performed by Cerep, Inc. (Seattle, WA, USA). In addition, ADME-Tox analysis was performed by Cerep, Inc. All experimental conditions are described on the Cerep website (www.cerep.fr). […]
(§2) Table S1. In vitro binding assays. An ExpresSProfile screen of PTX-BD4-3 binding to a panel of pharmacologically relevant receptors was conducted by Cerep, Inc.
(§3) (Eurofins Panlabs, MO). The results are expressed as percent inhibition of control specific binding obtained in the presence of 10 micromolar PTX-BD4-3. In this assay, values below 50% indicate no specific binding of PTX-BD4-3. The assay was negative for PTX-BD4-3 binding to all of the 55 receptors in the screen.
(§4) (also on this page, place not known: 2B 5‐HT 3 5‐HT 5a 5‐HT 6 5‐HT 7 (agonis t VPAC 1 V 1 Ca 2+ K V SK Ca Na + Cl ‐ 5‐HT Disease Models & Mechanisms: doi:10.1242/dmm.044685: Supplementary information Disease Models & Mechanisms • Supplementary information)

A further test addresses T2, 5-HT3 (h) (Homo sapiens, UniProt P46098).
T2 construct: Cerep, Inc. (contract screen)
T2 sequence (P46098 24-478): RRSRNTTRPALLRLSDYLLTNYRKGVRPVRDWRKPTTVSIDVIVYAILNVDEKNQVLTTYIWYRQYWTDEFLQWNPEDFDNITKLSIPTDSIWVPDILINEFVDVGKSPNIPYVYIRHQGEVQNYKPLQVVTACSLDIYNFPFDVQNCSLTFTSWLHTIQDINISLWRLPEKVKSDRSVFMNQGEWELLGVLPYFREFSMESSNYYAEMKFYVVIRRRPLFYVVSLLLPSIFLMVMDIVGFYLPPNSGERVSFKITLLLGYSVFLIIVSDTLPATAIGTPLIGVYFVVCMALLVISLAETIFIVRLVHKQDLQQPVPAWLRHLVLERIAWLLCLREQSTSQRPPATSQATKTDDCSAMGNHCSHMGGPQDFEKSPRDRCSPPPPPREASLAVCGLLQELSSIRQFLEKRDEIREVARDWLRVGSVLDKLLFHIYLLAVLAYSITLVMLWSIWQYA
The experiment in a line: Cerep ExpresSProfile radioligand binding. The conditions noted are these: 10 micromolar, antagonist radioligand. Here is the method:
as §1, §2, §3, §4

The next test addresses T3, 5-HT transporter (h) (Homo sapiens, UniProt P31645).
T3 construct: Cerep, Inc. (contract screen)
The experiment in a line: Cerep ExpresSProfile radioligand binding. The conditions noted are these: 10 micromolar, antagonist radioligand. As to the method: as §1, §2, §3, §4

Another test has as its target T4, κ (KOP) (Rattus norvegicus, UniProt P34975).
T4 construct: purchased Cerep (ExpresSProfile)
The experiment in a line: Cerep ExpresSProfile radioligand binding. As to conditions: 10 micromolar; agonist radioligand; read-out: % Inhibition of Control Specific Binding 1st. As to the method:
as §1, §2, §3, §4

A further test addresses T5, H2 (h) (Homo sapiens, UniProt P25021).
T5 construct: purchased Cerep (ExpresSProfile)
The experiment in a line: Cerep ExpresSProfile radioligand binding. The conditions noted are these: 10 micromolar; antagonist radioligand; read-out: % Inhibition of Control Specific Binding 1st. Here is the method: as §1, §2, §3, §4

The next test concerns the target T6, M3 (h) (Homo sapiens, UniProt P20309).
T6 construct: purchased Cerep (ExpresSProfile)
The test is described as follows: Cerep ExpresSProfile radioligand binding. The conditions noted are these: 10 micromolar; antagonist radioligand; read-out: % Inhibition of Control Specific Binding 2nd. As to the method:
as §1, §2, §3, §4

The next test addresses T7, dopamine transporter (h) (Homo sapiens, UniProt Q01959).
T7 construct: Cerep, Inc. (contract screen)
The test is described as follows: Cerep ExpresSProfile radioligand binding. The conditions noted are these: 10 micromolar, antagonist radioligand. As to the method: as §1, §2, §3, §4

A further test deals with T8, NK3 (h) (Homo sapiens, UniProt P29371).
T8 construct: purchased Cerep (ExpresSProfile)
The test is described as follows: Cerep ExpresSProfile radioligand binding. As to conditions: 10 micromolar; antagonist radioligand; read-out: % Inhibition of Control Specific Binding 2nd. Here is the method:
as §1, §2, §3, §4

The subject of another test is KV channel. The experiment in a line: Cerep ExpresSProfile radioligand binding. The conditions noted are these: 10 micromolar; antagonist radioligand. Here is the method:
as §1, §2, §3, §4

The target of another test is T9, M2 (h) (Homo sapiens, UniProt P08172).
T9 construct: purchased Cerep (ExpresSProfile)
The experiment in a line: Cerep ExpresSProfile radioligand binding. The conditions noted are these: 10 micromolar; antagonist radioligand; read-out: % Inhibition of Control Specific Binding 1st. As to the method: as §1, §2, §3, §4

The next test concerns Cl- channel (GABA-gated). The experiment in a line: Cerep ExpresSProfile radioligand binding. As to conditions: 10 micromolar; antagonist radioligand. Here is the method: as §1, §2, §3, §4
Where [2] appears, read: read-out: % Inhibition of Control Specific Binding 1st.
The mark [3] stands for this setting: read-out: % Inhibition of Control Specific Binding 2nd.
[4] abbreviates: read-out: % Inhibition of Control Specific Binding Mean.

Structures are written as SMILES. Where two headings read alike, the source gives them in different places.

T1 sequence (P30989 whole entry): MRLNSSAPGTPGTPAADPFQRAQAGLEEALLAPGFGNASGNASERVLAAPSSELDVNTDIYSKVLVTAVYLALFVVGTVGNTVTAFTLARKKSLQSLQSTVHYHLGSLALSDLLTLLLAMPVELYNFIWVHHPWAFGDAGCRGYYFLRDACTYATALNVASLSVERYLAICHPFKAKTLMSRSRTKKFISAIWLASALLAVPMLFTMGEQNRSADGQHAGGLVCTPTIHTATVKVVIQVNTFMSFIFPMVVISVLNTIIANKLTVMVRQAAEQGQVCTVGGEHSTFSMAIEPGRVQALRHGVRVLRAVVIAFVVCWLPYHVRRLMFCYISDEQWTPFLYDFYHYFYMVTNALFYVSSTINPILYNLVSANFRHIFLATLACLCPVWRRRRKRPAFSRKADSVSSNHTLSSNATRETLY
T3 sequence (P31645 whole entry): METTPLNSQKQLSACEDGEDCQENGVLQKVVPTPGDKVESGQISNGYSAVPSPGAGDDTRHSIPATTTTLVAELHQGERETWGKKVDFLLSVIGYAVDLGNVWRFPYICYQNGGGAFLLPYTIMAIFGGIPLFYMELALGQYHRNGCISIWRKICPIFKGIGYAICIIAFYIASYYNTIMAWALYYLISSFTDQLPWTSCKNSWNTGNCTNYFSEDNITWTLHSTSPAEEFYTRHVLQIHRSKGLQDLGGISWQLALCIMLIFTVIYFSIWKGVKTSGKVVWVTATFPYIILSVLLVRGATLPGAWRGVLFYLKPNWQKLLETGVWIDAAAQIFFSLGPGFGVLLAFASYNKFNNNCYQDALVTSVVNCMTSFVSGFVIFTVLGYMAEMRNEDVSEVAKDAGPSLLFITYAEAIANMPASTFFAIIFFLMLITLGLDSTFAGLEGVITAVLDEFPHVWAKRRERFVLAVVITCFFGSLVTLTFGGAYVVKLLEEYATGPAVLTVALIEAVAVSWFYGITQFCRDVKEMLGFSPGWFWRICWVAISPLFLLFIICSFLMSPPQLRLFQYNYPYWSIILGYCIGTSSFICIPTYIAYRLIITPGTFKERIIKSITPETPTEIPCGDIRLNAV
T7 sequence (Q01959 whole entry): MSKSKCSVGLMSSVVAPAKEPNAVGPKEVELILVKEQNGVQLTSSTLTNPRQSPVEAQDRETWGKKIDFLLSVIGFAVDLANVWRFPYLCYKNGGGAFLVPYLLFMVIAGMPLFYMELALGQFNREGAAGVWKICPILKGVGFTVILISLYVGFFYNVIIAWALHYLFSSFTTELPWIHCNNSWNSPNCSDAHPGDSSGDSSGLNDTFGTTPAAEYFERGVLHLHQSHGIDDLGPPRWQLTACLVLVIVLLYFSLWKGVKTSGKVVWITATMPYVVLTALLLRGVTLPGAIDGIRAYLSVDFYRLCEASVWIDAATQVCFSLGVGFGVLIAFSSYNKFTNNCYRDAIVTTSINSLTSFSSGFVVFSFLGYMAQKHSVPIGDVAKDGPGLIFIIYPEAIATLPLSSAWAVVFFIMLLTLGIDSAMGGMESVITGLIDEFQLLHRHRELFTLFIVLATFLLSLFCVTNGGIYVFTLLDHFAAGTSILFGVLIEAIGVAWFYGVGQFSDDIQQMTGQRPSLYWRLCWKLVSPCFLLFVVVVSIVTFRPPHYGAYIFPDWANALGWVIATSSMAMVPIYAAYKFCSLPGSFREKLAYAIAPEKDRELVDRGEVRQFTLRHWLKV
T8 sequence (P29371 whole entry): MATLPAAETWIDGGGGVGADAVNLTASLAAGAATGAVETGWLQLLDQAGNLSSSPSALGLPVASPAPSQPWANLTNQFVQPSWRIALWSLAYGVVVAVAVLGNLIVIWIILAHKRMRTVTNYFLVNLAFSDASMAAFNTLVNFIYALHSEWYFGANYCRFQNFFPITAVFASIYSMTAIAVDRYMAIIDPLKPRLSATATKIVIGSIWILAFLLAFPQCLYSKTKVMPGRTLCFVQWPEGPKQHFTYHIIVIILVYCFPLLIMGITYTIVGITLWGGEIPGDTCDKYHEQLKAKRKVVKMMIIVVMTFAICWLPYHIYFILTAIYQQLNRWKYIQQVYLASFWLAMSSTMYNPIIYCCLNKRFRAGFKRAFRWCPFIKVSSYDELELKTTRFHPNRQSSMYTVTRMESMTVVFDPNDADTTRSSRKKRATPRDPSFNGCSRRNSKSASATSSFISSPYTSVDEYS
T5 sequence (P25021 whole entry): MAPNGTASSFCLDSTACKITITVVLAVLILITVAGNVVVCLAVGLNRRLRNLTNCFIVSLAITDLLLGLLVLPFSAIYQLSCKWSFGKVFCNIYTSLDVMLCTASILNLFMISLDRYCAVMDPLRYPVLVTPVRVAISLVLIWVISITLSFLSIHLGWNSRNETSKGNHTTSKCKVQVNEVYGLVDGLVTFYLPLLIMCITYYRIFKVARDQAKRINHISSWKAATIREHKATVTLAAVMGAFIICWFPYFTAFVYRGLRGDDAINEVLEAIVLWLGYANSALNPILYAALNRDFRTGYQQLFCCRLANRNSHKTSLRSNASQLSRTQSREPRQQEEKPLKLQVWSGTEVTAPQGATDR
T6 sequence (P20309 whole entry): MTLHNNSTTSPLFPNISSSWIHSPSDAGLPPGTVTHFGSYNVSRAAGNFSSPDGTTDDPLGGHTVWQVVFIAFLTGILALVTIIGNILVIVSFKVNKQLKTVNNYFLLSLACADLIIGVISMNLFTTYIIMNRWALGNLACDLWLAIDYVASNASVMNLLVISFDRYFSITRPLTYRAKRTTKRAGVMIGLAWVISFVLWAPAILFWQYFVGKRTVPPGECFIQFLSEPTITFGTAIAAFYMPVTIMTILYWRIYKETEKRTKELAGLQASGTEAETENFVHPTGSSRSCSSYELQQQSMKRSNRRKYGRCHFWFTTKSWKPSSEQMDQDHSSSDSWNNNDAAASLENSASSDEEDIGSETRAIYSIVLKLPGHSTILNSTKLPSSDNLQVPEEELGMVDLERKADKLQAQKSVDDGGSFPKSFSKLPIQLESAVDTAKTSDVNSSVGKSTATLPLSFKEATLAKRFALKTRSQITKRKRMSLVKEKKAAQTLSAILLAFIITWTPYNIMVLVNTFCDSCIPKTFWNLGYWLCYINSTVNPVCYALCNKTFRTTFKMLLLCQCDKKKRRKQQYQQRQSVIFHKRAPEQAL
T9 sequence (P08172 whole entry): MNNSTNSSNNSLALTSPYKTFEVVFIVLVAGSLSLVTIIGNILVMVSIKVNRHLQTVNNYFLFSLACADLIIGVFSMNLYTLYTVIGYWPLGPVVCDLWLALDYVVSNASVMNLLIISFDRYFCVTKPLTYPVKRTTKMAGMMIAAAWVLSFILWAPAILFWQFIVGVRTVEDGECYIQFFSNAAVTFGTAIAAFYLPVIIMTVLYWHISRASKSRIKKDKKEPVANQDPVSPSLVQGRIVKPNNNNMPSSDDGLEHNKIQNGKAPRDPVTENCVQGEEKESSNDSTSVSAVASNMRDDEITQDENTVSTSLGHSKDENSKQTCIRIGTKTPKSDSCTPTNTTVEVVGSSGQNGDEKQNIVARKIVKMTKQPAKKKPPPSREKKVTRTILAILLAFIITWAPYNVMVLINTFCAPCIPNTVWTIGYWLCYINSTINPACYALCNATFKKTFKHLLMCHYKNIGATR
T4 sequence (P34975 whole entry): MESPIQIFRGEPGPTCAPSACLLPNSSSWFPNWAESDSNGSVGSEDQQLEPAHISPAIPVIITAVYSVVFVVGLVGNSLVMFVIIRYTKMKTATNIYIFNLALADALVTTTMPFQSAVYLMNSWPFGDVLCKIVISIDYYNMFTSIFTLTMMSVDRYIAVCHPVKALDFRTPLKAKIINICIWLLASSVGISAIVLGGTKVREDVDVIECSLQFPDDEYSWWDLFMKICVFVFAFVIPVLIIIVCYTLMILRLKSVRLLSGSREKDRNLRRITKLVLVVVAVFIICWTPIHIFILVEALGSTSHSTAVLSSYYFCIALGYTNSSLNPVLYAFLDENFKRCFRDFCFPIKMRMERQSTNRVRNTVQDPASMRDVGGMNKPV

Turning to `COCCN(C)C(=O)c1cc(C(=O)N(C)CCOC)cc(C(=O)N(C)CCOC)c1` [PTX-BD4-3, benzene-1,3,5-tricarboxylic acid tris-[(2-methoxy-ethyl)-methyl-amide]], in test [1], the foot slip errors result was “no reduction”. The inhibition at 10 µM turned out to be 11.2% at NTS1 (NT1) (h) (setting [2]); 2.6% at NTS1 (NT1) (h) (setting [3]); 6.9% at NTS1 (NT1) (h) (setting [4]); 6.9% at 5-HT3 (h) (setting [2]); 13.4% on 5-HT3 (h) (setting [3]); 10.1% at 5-HT3 (h) (setting [4]). Further, the inhibition at 10 µM was found to be 16.3% at 5-HT transporter (h) (setting [2]); 5.5% at 5-HT transporter (h) (setting [3]); 10.9% on 5-HT transporter (h) (setting [4]); 0.9% at κ (KOP); 2.8% on H2 (h); 0.8% at M3 (h). Besides, the inhibition at 10 µM stood at 2.2% at dopamine transporter (h) (setting [2]); 0.9% at dopamine transporter (h) (setting [3]); 1.6% on dopamine transporter (h) (setting [4]); 0.4% at NK3 (h); 6.3% on M2 (h). The figures for the “% Inhibition of Control Specific Binding 1st” value in the test with KV channel and with Cl- channel (GABA-gated) were 6.4% and 2.7%, respectively.

The record behind these values is paper PMC7710018, “Restoration of motor learning in a mouse model of Rett syndrome following long-term treatment with a novel small-molecule activator of TrkB” (Disease Models & Mechanisms, 2020).
